Test results as given in patent publication US9682941B2, “Substituted biphenyl analogues as dual inhibitors of aromatase and sulfatase” (ESTRYX PHARMA LIMITED, priority 2013, dated 2017).

Legend:
[1] = biological target: T1, aromatase (Homo sapiens, UniProt P11511); experiment: Aromatase inhibition assay in JEG-3 cells ([1β-3H] androstenedione, tritiated water release); assay type: cell-based; conditions: 1.25 hour incubation, duplicate
T1 construct: JEG-3 which constitutively expresses high amount of aromatase and steroid sulfatase; endogenous in cells; host or cells: JEG-3
T1 sequence (P11511 1-503): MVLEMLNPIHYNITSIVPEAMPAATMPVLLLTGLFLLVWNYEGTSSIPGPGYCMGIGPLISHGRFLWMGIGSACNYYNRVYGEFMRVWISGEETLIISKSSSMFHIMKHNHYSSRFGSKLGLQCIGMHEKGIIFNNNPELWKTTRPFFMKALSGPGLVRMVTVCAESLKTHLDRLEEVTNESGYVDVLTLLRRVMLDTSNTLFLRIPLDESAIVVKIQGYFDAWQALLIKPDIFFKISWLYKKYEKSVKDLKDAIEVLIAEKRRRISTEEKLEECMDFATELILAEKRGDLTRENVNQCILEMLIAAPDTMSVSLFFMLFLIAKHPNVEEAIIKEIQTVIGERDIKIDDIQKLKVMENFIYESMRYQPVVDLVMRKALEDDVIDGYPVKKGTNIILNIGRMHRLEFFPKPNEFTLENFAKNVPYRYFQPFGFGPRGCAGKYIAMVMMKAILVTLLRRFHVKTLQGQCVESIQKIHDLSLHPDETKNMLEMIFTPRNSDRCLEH
Description: (§1) Aromatase and steroid sulfatase enzymes inhibitions were evaluated in the human chorionic carcinoma cell line JEG-3 which constitutively expresses high amount of aromatase and steroid sulfatase.
For aromatase inhibition assay, JEG-3 cells were seeded into 96-well plates at 35,000 cells/well and maintained in MEM containing supplements. When reaching 80% confluent, the cells were washed once with serum-free MEM, incubated with [1β-^3H] androstenedione (A4, 0.2 μCi/ml) for 1.25 hour in the presence of the test substances added in a concentration series. The product, tritiated water (^3H2O), was separated using 2.5% (w/v) dextran-coated charcoal at 4-8° C. for 2 hours. The supernatant radioactivity was measured by a MicroBeta scintillation counter.
(§2) Experiments are performed in duplicate. The inhibitory concentration of 50% of the enzymatic activity is calculated.

[2] = biological target: T2, steroid sulfatase (Homo sapiens, UniProt P08842); experiment: Steroid sulfatase (STS) inhibition assay in JEG-3 cells ([6,7-3H] estrone sulfate); assay type: cell-based; conditions: 1 hour at 37° C., duplicate
T2 construct: JEG-3 which constitutively expresses high amount of aromatase and steroid sulfatase; endogenous in cells; host or cells: JEG-3
T2 sequence (P08842 22-583): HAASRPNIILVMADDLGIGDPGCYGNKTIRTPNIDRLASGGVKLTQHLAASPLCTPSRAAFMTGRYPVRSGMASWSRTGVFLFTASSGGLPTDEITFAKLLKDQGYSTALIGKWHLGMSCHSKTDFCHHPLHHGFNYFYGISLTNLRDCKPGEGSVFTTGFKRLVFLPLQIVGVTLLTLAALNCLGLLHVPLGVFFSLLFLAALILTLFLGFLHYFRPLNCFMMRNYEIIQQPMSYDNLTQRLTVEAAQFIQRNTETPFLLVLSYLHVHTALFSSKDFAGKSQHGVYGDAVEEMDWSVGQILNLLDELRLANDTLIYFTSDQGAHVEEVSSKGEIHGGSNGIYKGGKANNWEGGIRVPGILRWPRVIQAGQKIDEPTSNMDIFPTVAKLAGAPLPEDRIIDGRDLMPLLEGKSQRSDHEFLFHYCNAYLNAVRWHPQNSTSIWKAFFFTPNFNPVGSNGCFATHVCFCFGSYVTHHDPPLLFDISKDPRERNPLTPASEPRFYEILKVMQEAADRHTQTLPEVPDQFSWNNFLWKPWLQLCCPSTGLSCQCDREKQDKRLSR
Description: as §1
For STS assay, JEG-3 cells were seeded into 24-well culture plates at 150,000 cells/ml/well and maintained in MEM containing supplements overnight. When reaching 80% confluent, the cells were washed once with serum-free MEM, loaded with 1 ml of substrate mix containing [6,7-3H] Estrone sulfate (E1S, 0.6 μCi/ml) and [4-14C] Estrone (E1, 4 nCi/ml) in the presence of compounds in a concentration series, and incubated for 1 hour at 37° C. The product [3H]E1 was separated from E1S by toluene partition using [4-14C]E1 to monitor extraction procedural losses, and the toluene fraction radioactivity was measured by a MicroBeta scintillation counter.
as §2

| Structure (SMILES) | IC50 [1] | IC50 [2] |
| --- | --- | --- |
| N#Cc1ccc(Cn2cnc3ccccc32)cc1-c1ccc(OS(N)(=O)=O)cc1 [Example 1, 5′-((1H-Benzo[d]imidazol-1-yl)methyl)-2′-cyano-[1,1′-biphenyl]-4-yl sulfamate] | 1.2 nM | 2 nM |
| N#Cc1ccc(Nn2cnc3ccccc32)cc1-c1ccc(OS(N)(=O)=O)cc1 [Example 2, 5′-(1H-Benzo[d]imidazol-1-ylamino)-2′-cyano-[1,1′-biphenyl]-4-yl sulfamate] | 2 nM | 6.8 nM |
| Cc1nc2ccccc2n1Cc1ccc(C#N)c(-c2ccc(OS(N)(=O)=O)cc2)c1 [Example 3, 2′-Cyano-5′-((2-methyl-1H-benzo[d]imidazol-1-yl)methyl)biphenyl-4-yl sulfamate] | > 60 nM | 18.9 nM |
| N#Cc1ccc(Cn2nnc3ccccc32)cc1-c1ccc(OS(N)(=O)=O)cc1 [Example 4, 5′-((1H-Benzo[d][1,2,3]triazol-1-yl)methyl)-2′-cyano-[1,1′-biphenyl]-4-yl sulfamate] | 4.8 nM | 12.1 nM |
| CN(c1ccc(C#N)c(-c2ccc(OS(N)(=O)=O)cc2)c1)n1cnc2ccccc21 [Example 5, 5′-((1H-Benzo[d]imidazol-1-yl)(methyl)amino)-2′-cyano-[1,1′-biphenyl]-4-yl sulfamate] | 3.2 nM | 25.6 nM |
| N#Cc1ccc(N(CC2CC2)n2cnc3ccccc32)cc1-c1ccc(OS(N)(=O)=O)cc1 [Example 6, 5′-((1H-Benzo[d]imidazol-1-yl)(cyclopropylmethyl)amino)-2′-cyano-[1,1′-biphenyl]-4-yl sulfamate] | 53.2 nM | > 60 nM |
| N#Cc1ccc(Cn2c(C(F)(F)F)nc3ccccc32)cc1-c1ccc(OS(N)(=O)=O)cc1 [Example 7, 2′-Cyano-5′-((2-(trifluoromethyl)-1H-benzo[d]imidazol-1-yl)methyl)biphenyl-4-yl sulfamate] | > 60 nM | 16.4 nM |
| N#Cc1ccc(Cn2nnc3cccnc32)cc1-c1ccc(OS(N)(=O)=O)cc1 [Example 8, 5′-((3H-[1,2,3]Triazolo[4,5-b]pyridin-3-yl)methyl)-2′-cyano-[1,1′-biphenyl]-4-yl sulfamate] | 6.3 nM | 23.6 nM |
| N#Cc1ccc(Cn2cnc3ccccc32)nc1-c1ccc(OS(N)(=O)=O)cc1 [Example 10, 4-(6-((1H-Benzo[d]imidazol-1-yl)methyl)-3-cyanopyridin-2-yl)phenyl sulfamate] | 3.2 nM | 9.1 nM |
| N#Cc1ccc(Nn2nnc3ccccc32)cc1-c1ccc(OS(N)(=O)=O)cc1 [Example 11, 5′-(1H-Benzo[d][1,2,3]triazol-1-ylamino)-2′-cyanobiphenyl-4-yl sulfamate] | 1.2 nM | 18.4 nM |
| N#Cc1ccc(Cn2cnc3cccnc32)cc1-c1ccc(OS(N)(=O)=O)cc1 [Example 12, 5′-((3H-Imidazo[4,5-b]pyridin-3-yl)methyl)-2′-cyano-[1,1′-biphenyl]-4-yl sulfamate] | 0.5 nM | 7 nM |
| CN(c1ccc(C#N)c(-c2ccc(OS(N)(=O)=O)cc2)c1)n1nnc2ccccc21 [Example 13, 5′-((1H-Benzo[d][1,2,3]triazol-1-yl)(methyl)amino)-2′-cyanobiphenyl-4-yl sulfamate] | 13.1 nM | > 60 nM |
| N#Cc1ccc(Cn2cnc3cccnc32)nc1-c1ccc(OS(N)(=O)=O)cc1 [Example 14, 4-(6-((3H-Imidazo[4,5-b]pyridin-3-yl)methyl)-3-cyanopyridin-2-yl)phenyl sulfamate] | 7 nM | 21.7 nM |
| N#Cc1cnc(Nn2cnc3ccccc32)nc1-c1ccc(OS(N)(=O)=O)cc1 [Example 15, 4-(2-(1H-Benzo[d]imidazol-1-ylamino)-5-cyanopyrimidin-4-yl)phenyl sulfamate] | 17.5 nM | 14.6 nM |
| CN(c1ncc(C#N)c(-c2ccc(OS(N)(=O)=O)cc2)n1)n1cnc2ccccc21 [Example 16, 4-(2-((1H-Benzo[d]imidazol-1-yl)(methyl)amino)-5-cyanopyrimidin-4-yl)phenyl sulfamate] | 6.4 nM | 22 nM |
| CSc1cc(-c2cc(Cn3cnc4ccccc43)ccc2C#N)ccc1OS(N)(=O)=O [Example 18, 5′-((1H-Benzo[d]imidazol-1-yl)methyl)-2′-cyano-3-(methylthio)-[1,1′-biphenyl]-4-yl sulfamate] | 1.2 nM | 26.4 nM |
| CSc1ccc(-c2cc(Cn3cnc4ccccc43)ccc2C#N)cc1OS(N)(=O)=O [Example 19, 5′-((1H-benzo[d]imidazol-1-yl)methyl)-2′-cyano-4-(methylthio)-[1,1′-biphenyl]-3-yl sulfamate] | 2.2 nM | > 60 nM |
| CSc1cc(-c2cc(Nn3cnc4ccccc43)ccc2C#N)ccc1OS(N)(=O)=O [Example 20, 5′-((1H-Benzo[d]imidazol-1-yl)amino)-2′-cyano-3-(methylthio)-[1,1′-biphenyl]-4-yl sulfamate] | 2.9 nM | 52.3 nM |
| CSc1ccc(-c2cc(Nn3cnc4ccccc43)ccc2C#N)cc1OS(N)(=O)=O [Example 21, 5′-((1H-Benzo[d]imidazol-1-yl)amino)-2′-cyano-4-(methylthio)-[1,1′-biphenyl]-3-yl sulfamate] | 2.2 nM | > 60 nM |
| CN(c1ccc(C#N)c(-c2ccc(OS(N)(=O)=O)cc2)n1)n1cnc2ccccc21 [Example 23, 4-(6-((1H-Benzo[d]imidazol-1-yl)(methyl)amino)-3-cyanopyridin-2-yl)phenyl sulfamate] | 6.5 nM | 7.1 nM |
| N#Cc1cnc(Cn2cnc3cccnc32)nc1-c1ccc(OS(N)(=O)=O)cc1 [Example 25, 4-(2-((3H-Imidazo[4,5-b]pyridin-3-yl)methyl)-5-cyanopyrimidin-4-yl)phenyl sulfamate] | 6.2 nM | 10.7 nM |
| CSc1cc(-c2cc(N(C)n3cnc4ccccc43)ccc2C#N)ccc1OS(N)(=O)=O [Example 27, 5′-((1H-Benzo[d]imidazol-1-yl)(methyl)amino)-2′-cyano-3-(methylthio)-[1,1′-biphenyl]-4-yl sulfamate] | 4.6 nM | 17.8 nM |
| CSc1ccc(-c2cc(N(C)n3cnc4ccccc43)ccc2C#N)cc1OS(N)(=O)=O [Example 28, 5′-((1H-Benzo[d]imidazol-1-yl)(methyl)amino)-2′-cyano-4-(methylthio)-[1,1′-biphenyl]-3-yl sulfamate] | 5.8 nM | > 60 nM |
| CN(c1cc(-c2ccc(OS(N)(=O)=O)cc2)c(C#N)cn1)n1cnc2ccccc21 [Example 29, 4-(2-((1H-Benzo[d]imidazol-1-yl)(methyl)amino)-5-cyanopyridin-4-yl)phenyl sulfamate] | 2.5 nM | 37.6 nM |
| N#Cc1ccc(Cn2cnc3ccccc32)cc1-c1ccc(OS(N)(=O)=O)cn1 [Example 30, 6-(5-((1H-Benzo[d]imidazol-1-yl)methyl)-2-cyanophenyl)pyridin-3-yl sulfamate] | 5.9 nM | 7.2 nM |
| N#Cc1ncc(Nn2cnc3ccccc32)nc1-c1ccc(OS(N)(=O)=O)cc1 [Example 32, 4-(6-(1H-Benzo[d]imidazol-1-ylamino)-3-cyanopyrazin-2-yl)phenyl sulfamate] | 37.6 nM | 19.5 nM |
| N#Cc1ccc(Cn2cnc3cccnc32)cc1-c1ccc(OS(N)(=O)=O)cn1 [Example 33, 6-(5-((3H-Imidazo[4,5-b]pyridin-3-yl)methyl)-2-cyanophenyl)pyridin-3-yl sulfamate] | 9 nM | 17.6 nM |
